Assay: xn = mol fraction of the nth substance listed
Details: Liquid, Pycnometric method

Cn1ccnc1 [1-methylimidazole] + O=C=O
Details | mass density [kg/m3]
308.2 K, 7790 kPa, x1 = 0.0247 | 745
308.2 K, 7860 kPa, x1 = 0.0102 | 638
308.2 K, 7870 kPa, x1 = 0.0102 | 640
308.2 K, 7900 kPa, x1 = 0.0102 | 646
308.2 K, 7940 kPa, x1 = 0.0102 | 652
308.2 K, 7950 kPa, x1 = 0.0102 | 655
308.2 K, 7970 kPa, x1 = 0.0247 | 755
308.2 K, 7980 kPa, x1 = 0.0102 | 661
308.2 K, 8020 kPa, x1 = 0.0102 | 667
308.2 K, 8080 kPa, x1 = 0.0102 | 676
308.2 K, 8160 kPa, x1 = 0.0102 | 686
308.2 K, 8200 kPa, x1 = 0.0247 | 766
308.2 K, 8260 kPa, x1 = 0.0102 | 696
308.2 K, 8380 kPa, x1 = 0.0102 | 706
308.2 K, 8470 kPa, x1 = 0.0247 | 777
308.2 K, 8520 kPa, x1 = 0.0102 | 716
308.2 K, 8590 kPa, x1 = 0.0487 | 838
308.2 K, 8680 kPa, x1 = 0.0487 | 841
308.2 K, 8690 kPa, x1 = 0.0102 | 727
308.2 K, 8790 kPa, x1 = 0.0487 | 844
308.2 K, 8820 kPa, x1 = 0.0247 | 790
308.2 K, 8910 kPa, x1 = 0.0102 | 738
308.2 K, 8910 kPa, x1 = 0.0487 | 847
308.2 K, 9040 kPa, x1 = 0.0487 | 849
308.2 K, 9150 kPa, x1 = 0.0102 | 750
308.2 K, 9150 kPa, x1 = 0.0487 | 852
308.2 K, 9250 kPa, x1 = 0.0247 | 802
308.2 K, 9290 kPa, x1 = 0.0487 | 853
308.2 K, 9440 kPa, x1 = 0.0102 | 761
308.2 K, 9450 kPa, x1 = 0.0487 | 858
308.2 K, 9600 kPa, x1 = 0.0487 | 860
308.2 K, 9750 kPa, x1 = 0.0247 | 815
308.2 K, 9750 kPa, x1 = 0.0487 | 863
308.2 K, 9800 kPa, x1 = 0.0102 | 773
308.2 K, 9850 kPa, x1 = 0.1024 | 937
308.2 K, 9920 kPa, x1 = 0.0487 | 866
308.2 K, 10030 kPa, x1 = 0.1024 | 939
308.2 K, 10130 kPa, x1 = 0.0247 | 824
308.2 K, 10200 kPa, x1 = 0.0102 | 786
308.2 K, 10360 kPa, x1 = 0.1024 | 942
308.2 K, 10560 kPa, x1 = 0.0247 | 833
308.2 K, 10630 kPa, x1 = 0.1024 | 945
308.2 K, 10700 kPa, x1 = 0.0102 | 799
308.2 K, 11000 kPa, x1 = 0.1024 | 948
308.2 K, 11070 kPa, x1 = 0.0247 | 842
308.2 K, 11250 kPa, x1 = 0.0102 | 812
308.2 K, 11310 kPa, x1 = 0.1024 | 951
308.2 K, 11620 kPa, x1 = 0.0247 | 851
308.2 K, 11710 kPa, x1 = 0.1024 | 954
308.2 K, 11920 kPa, x1 = 0.0102 | 826
308.2 K, 12010 kPa, x1 = 0.1024 | 956
308.2 K, 12240 kPa, x1 = 0.0247 | 860
308.2 K, 12460 kPa, x1 = 0.1024 | 960
308.2 K, 12590 kPa, x1 = 0.0247 | 865
308.2 K, 12610 kPa, x1 = 0.0102 | 840
308.2 K, 12820 kPa, x1 = 0.1024 | 963
308.2 K, 12940 kPa, x1 = 0.0247 | 870
308.2 K, 13250 kPa, x1 = 0.1024 | 966
308.2 K, 13310 kPa, x1 = 0.0247 | 875
308.2 K, 13440 kPa, x1 = 0.0102 | 859
308.2 K, 13690 kPa, x1 = 0.1024 | 969
308.2 K, 13720 kPa, x1 = 0.0247 | 880
308.2 K, 14140 kPa, x1 = 0.0247 | 885
308.2 K, 14140 kPa, x1 = 0.1024 | 972
308.2 K, 14560 kPa, x1 = 0.0102 | 875
308.2 K, 14570 kPa, x1 = 0.1024 | 975
308.2 K, 14610 kPa, x1 = 0.0247 | 890
308.2 K, 14990 kPa, x1 = 0.0102 | 880
308.2 K, 15060 kPa, x1 = 0.0247 | 895
308.2 K, 15080 kPa, x1 = 0.1024 | 978
308.2 K, 15430 kPa, x1 = 0.0102 | 886
308.2 K, 15540 kPa, x1 = 0.1024 | 981
308.2 K, 15600 kPa, x1 = 0.0247 | 901
308.2 K, 16080 kPa, x1 = 0.1024 | 984
308.2 K, 16570 kPa, x1 = 0.1024 | 987
308.2 K, 17250 kPa, x1 = 0.1024 | 991
308.2 K, 17650 kPa, x1 = 0.1024 | 994
308.2 K, 18340 kPa, x1 = 0.1024 | 998
308.2 K, 18880 kPa, x1 = 0.1024 | 1001
309.8 K, 8020 kPa, x1 = 0.0102 | 543
309.8 K, 8030 kPa, x1 = 0.0102 | 551
309.8 K, 8040 kPa, x1 = 0.0102 | 560
309.8 K, 8060 kPa, x1 = 0.0102 | 571
309.8 K, 8070 kPa, x1 = 0.0102 | 581
309.8 K, 8090 kPa, x1 = 0.0102 | 589
309.8 K, 8110 kPa, x1 = 0.0102 | 600
309.8 K, 8140 kPa, x1 = 0.0102 | 612
309.8 K, 8180 kPa, x1 = 0.0102 | 624
309.8 K, 8230 kPa, x1 = 0.0102 | 636
309.8 K, 8300 kPa, x1 = 0.0102 | 649
309.8 K, 8390 kPa, x1 = 0.0102 | 663
309.8 K, 8500 kPa, x1 = 0.0102 | 677
309.8 K, 8650 kPa, x1 = 0.0102 | 691
309.8 K, 8830 kPa, x1 = 0.0102 | 707
309.8 K, 9090 kPa, x1 = 0.0102 | 723
309.8 K, 9420 kPa, x1 = 0.0102 | 740
309.8 K, 9830 kPa, x1 = 0.0102 | 758
309.8 K, 10210 kPa, x1 = 0.0102 | 772
309.8 K, 10880 kPa, x1 = 0.0102 | 790
309.8 K, 11970 kPa, x1 = 0.0102 | 816
309.8 K, 12530 kPa, x1 = 0.0102 | 826
309.8 K, 13140 kPa, x1 = 0.0102 | 836
309.8 K, 13680 kPa, x1 = 0.0102 | 846
313.1 K, 8750 kPa, x1 = 0.0102 | 576
313.1 K, 8770 kPa, x1 = 0.0102 | 581
313.1 K, 8810 kPa, x1 = 0.0102 | 589
313.1 K, 8850 kPa, x1 = 0.0102 | 597
313.1 K, 8890 kPa, x1 = 0.0102 | 606
313.1 K, 8900 kPa, x1 = 0.0247 | 717
313.1 K, 8940 kPa, x1 = 0.0102 | 615
313.1 K, 8990 kPa, x1 = 0.0102 | 624
313.1 K, 9000 kPa, x1 = 0.0247 | 723
313.1 K, 9040 kPa, x1 = 0.0102 | 633
313.1 K, 9120 kPa, x1 = 0.0102 | 643
313.1 K, 9120 kPa, x1 = 0.0247 | 729
313.1 K, 9200 kPa, x1 = 0.0102 | 653
313.1 K, 9260 kPa, x1 = 0.0247 | 737
313.1 K, 9300 kPa, x1 = 0.0102 | 663
313.1 K, 9400 kPa, x1 = 0.0247 | 744
313.1 K, 9420 kPa, x1 = 0.0102 | 673
313.1 K, 9550 kPa, x1 = 0.0102 | 684
313.1 K, 9560 kPa, x1 = 0.0247 | 751
313.1 K, 9700 kPa, x1 = 0.0102 | 695
313.1 K, 9730 kPa, x1 = 0.0247 | 759
313.1 K, 9900 kPa, x1 = 0.0102 | 707
313.1 K, 9940 kPa, x1 = 0.0247 | 766
313.1 K, 10070 kPa, x1 = 0.0487 | 827
313.1 K, 10130 kPa, x1 = 0.0102 | 719
313.1 K, 10170 kPa, x1 = 0.0247 | 774
313.1 K, 10190 kPa, x1 = 0.0487 | 830
313.1 K, 10320 kPa, x1 = 0.0487 | 833
313.1 K, 10380 kPa, x1 = 0.0102 | 731
313.1 K, 10440 kPa, x1 = 0.0487 | 835
313.1 K, 10560 kPa, x1 = 0.0487 | 838
313.1 K, 10570 kPa, x1 = 0.0247 | 786
313.1 K, 10690 kPa, x1 = 0.0487 | 841
313.1 K, 10700 kPa, x1 = 0.0102 | 744
313.1 K, 10830 kPa, x1 = 0.0487 | 843
313.1 K, 10870 kPa, x1 = 0.0247 | 794
313.1 K, 10990 kPa, x1 = 0.0487 | 846
313.1 K, 11080 kPa, x1 = 0.0102 | 758
313.1 K, 11130 kPa, x1 = 0.0487 | 849

Source: the NIST ThermoML archive (doi:10.1021/je900387e)
